In patent US10676471B2, “Cycloalkyl-linked diheterocycle derivatives” (Pfizer Inc., priority 2014, dated 2020):

Tested on: BT20 Cell
Test: Cancer Cell Lysate Total L-Glutamate Assay
Assay type: cell-based
Settings: total L-glutamate in cell lysate, BT20 cells, 2 hour incubation with test compound
In short: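 BT20 and other cancer lines at ~80% confluence were given fresh L-glutamine-containing medium, then treated with serially diluted compound (0.5% DMSO) for 2 hours at 37° C. Washed cells were lysed by freeze-thaw and sonication. Lysate glutamate was measured via glutamate oxidase/HRP/50 μM Amplex Red fluorescence (ex 530-560, em 585 nm); IC50 by four-parameter logistic fit.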

Compound CC(=O)Nc1nnc(C2CC[C@H](Cc3nnc(NC(=O)Cc4ccccc4)s3)C2)s1 (single isomer, unassigned) [Example 16, N-[5-({(cis)-3-[5-(acetylamino)-1,3,4-thiadiazol-2-yl]cyclopentyl}methyl)-1,3,4-thiadiazol-2-yl]-2-phenylacetamide] has an IC50 (Homo sapiens, BT-20, 2 h) of 399 nM.

With CC(=O)Nc1nnc(C[C@@H]2CC[C@H](c3nnc(NC(=O)Cc4ccccc4)s3)C2)s1 (single isomer, unassigned) [Example 44, N-{5-[(cis)-3-{[5-(acetylamino)-1,3,4-thiadiazol-2-yl]methyl}cyclopentyl]-1,3,4-thiadiazol-2-yl}-2-phenylacetamide] the IC50 (Homo sapiens, BT-20, 2 h) was 5.5 nM.

Compound O=C(Cc1ccccn1)Nc1nnc(C2CCCC(c3nnc(NC(=O)Cc4ccccn4)s3)C2)s1 (racemic) [Example 139, N,N′-[cyclohexane-1,3-diyldi-1,3,4-thiadiazole-5,2-diyl]bis[2-(pyridin-2-yl)acetamide]] has an IC50 (Homo sapiens, BT-20, 2 h) of 196 nM.

With O=C(Cc1ccccn1)Nc1nnc(C2CC3(C2)CC(c2nnc(NC(=O)Cc4ccccn4)s2)C3)s1 (racemic) [Example 61, N,N′-(spiro[3.3]heptane-2,6-diyldi-1,3,4-thiadiazole-5,2-diyl)bis[2-(pyridin-2-yl)acetamide]] the IC50 (Homo sapiens, BT-20, 2 h) was 1.6 nM.

Compound C[C@H](C(=O)Nc1nnc(C[C@H]2CC[C@@H](c3nnc(NC(=O)[C@@H](C)c4cccnc4)s3)C2)s1)c1cccnc1 (single isomer, unassigned) [Example 32, 2-(pyridin-3-yl)-N-(5-{[(cis)-3-(5-{[2-(pyridin-3-yl)propanoyl]amino}-1,3,4-thiadiazol-2-yl)cyclopentyl]methyl}-1,3,4-thiadiazol-2-yl)propanamide] has an IC50 (Homo sapiens, BT-20, 2 h) of 201 nM.

In the case of CC(=O)Nc1nnc(C[C@@H]2CC[C@H](c3nnc(NC(=O)Cc4cncnc4)s3)C2)s1 (single isomer, unassigned) [Example 58, N-{5-[(cis)-3-{[5-(acetylamino)-1,3,4-thiadiazol-2-yl]methyl}cyclopentyl]-1,3,4-thiadiazol-2-yl}-2-(pyrimidin-5-yl)acetamide], the IC50 (Homo sapiens, BT-20, 2 h) is reported as 276 nM.

Compound O=C(Cc1ccccn1)Nc1nnc(C2CCC(c3nnc(NC(=O)Cc4ccccn4)s3)C2)s1 (racemic) [Example 138, N,N′-[cyclopentane-1,3-diyldi-1,3,4-thiadiazole-5,2-diyl]bis[2-(pyridin-2-yl)acetamide]] has an IC50 (Homo sapiens, BT-20, 2 h) of 120 nM.

With O=C(CCn1cccn1)Nc1nnc(C[C@H]2CC[C@@H](c3nnc(NC(=O)Cc4ccccn4)s3)C2)s1 (racemic) [Example 143, (rac)-3-(1H-pyrazol-1-yl)-N-(5-{[(cis)-3-{5-[(pyridin-2-ylacetyl)amino]-1,3,4-thiadiazol-2-yl}cyclopentyl]methyl}-1,3,4-thiadiazol-2-yl)propanamide] the IC50 (Homo sapiens, BT-20, 2 h) was 4.2 nM.

CC(=O)Nc1nnc([C@H]2CC[C@@H](Cc3nnc(NC(=O)Cc4ccc(C)nc4)s3)C2)s1 (single isomer, unassigned) [Example 53, N-[5-({(cis)-3-[5-(acetylamino)-1,3,4-thiadiazol-2-yl]cyclopentyl}methyl)-1,3,4-thiadiazol-2-yl]-2-(6-methylpyridin-3-yl)acetamide] showed an IC50 (Homo sapiens, BT-20, 2 h) of 6.8 nM.

Compound O=C(Cc1ccccn1)Nc1ccc(C[C@@H]2CC[C@H](c3nnc(NC(=O)C[C@H]4CCCO4)s3)C2)nn1 (single isomer, unassigned) [Example 130] has an IC50 (Homo sapiens, BT-20, 2 h) of 1.8 nM.

O=C(Cc1ccccn1)Nc1nnc(CC2CCC(c3nnc(Nc4cnccn4)s3)C2)s1 (racemic) [Example 87, (rac)-N-[5-({(cis)-3-[5-(pyrazin-2-ylamino)-1,3,4-thiadiazol-2-yl]cyclopentyl}methyl)-1,3,4-thiadiazol-2-yl]-2-(pyridin-2-yl)acetamide] was tested, and the IC50 (Homo sapiens, BT-20, 2 h) was 7.5 nM.

CC(=O)Nc1nnc(C[C@H]2CCC(c3nnc(NC(=O)Cc4ccncn4)s3)C2)s1 (single isomer, unassigned) [Example 21, N-{5-[(cis)-3-{[5-(acetylamino)-1,3,4-thiadiazol-2-yl]methyl}cyclopentyl]-1,3,4-thiadiazol-2-yl}-2-(pyrimidin-4-yl)acetamide] showed an IC50 (Homo sapiens, BT-20, 2 h) of over 6650 nM.

O=C(Cc1ccccn1)Nc1nnc(C[C@H]2CC[C@@H](c3nnc(NC(=O)Cc4ccccn4)s3)C2)s1 (single isomer, unassigned) [Example 4] was tested, and the IC50 (Homo sapiens, BT-20, 2 h) was 21.6 nM.

With O=C(Cc1ccccc1)Nc1nnc(CC2CCC(c3nnc(NC(=O)Cc4ccccc4)s3)C2)s1 (racemic) [Example 9, (rac)-2-phenyl-N-(5-{[(cis)-3-{5-[(phenylacetyl)amino]-1,3,4-thiadiazol-2-yl}cyclopentyl]methyl}-1,3,4-thiadiazol-2-yl)acetamide] the IC50 (Homo sapiens, BT-20, 2 h) was 17 nM.

With O=C(Cc1ccccn1)Nc1ccc(C[C@H]2CC[C@@H](c3nnc(NC(=O)Cc4ccccn4)s3)C2)nn1 (single isomer, unassigned) [Example 71, 2-(pyridin-2-yl)-N-{5-[(cis)-3-({6-[(pyridin-2-ylacetyl)amino]pyridazin-3-yl}methyl)cyclopentyl]-1,3,4-thiadiazol-2-yl}acetamide] the IC50 (Homo sapiens, BT-20, 2 h) was 2.7 nM.

CC(=O)Nc1nnc(CC2CCC(c3nnc(NC(=O)c4ccccc4)s3)C2)s1 (racemic) [Example 48, (rac)-N-{5-[(cis)-3-{[5-(acetylamino)-1,3,4-thiadiazol-2-yl]methyl}cyclopentyl]-1,3,4-thiadiazol-2-yl}benzamide] showed an IC50 (Homo sapiens, BT-20, 2 h) of 989 nM.

Compound O=C(Cc1ccccn1)Nc1nnc(C[C@@H]2CC[C@H](c3nnc(NC(=O)Cc4ccccn4)s3)C2)s1 (single isomer, unassigned) [Example 2] has an IC50 (Homo sapiens, BT-20, 2 h) of 1 nM.

CC(=O)Nc1nnc(C2CC[C@H](Cc3nnc(NC(=O)Cc4ccccn4)s3)C2)s1 (single isomer, unassigned) [Example 19, N-[5-({(cis)-3-[5-(acetylamino)-1,3,4-thiadiazol-2-yl]cyclopentyl}methyl)-1,3,4-thiadiazol-2-yl]-2-(pyridin-2-yl)acetamide] gave an IC50 (Homo sapiens, BT-20, 2 h) of 1470 nM.

CC(=O)Nc1nnc(C[C@H]2CC[C@@H](c3nnc(NC(C)=O)s3)C2)s1 (single isomer, unassigned) [Example 7] gave an IC50 (Homo sapiens, BT-20, 2 h) of 3360 nM.

For C[C@H](C(=O)Nc1nnc(C[C@H]2CC[C@@H](c3nnc(NC(=O)[C@H](C)c4cccnc4)s3)C2)s1)c1cccnc1 (single isomer, unassigned) [Example 34, 2-(pyridin-3-yl)-N-(5-{[(cis)-3-(5-{[2-(pyridin-3-yl)propanoyl]amino}-1,3,4-thiadiazol-2-yl)cyclopentyl]methyl}-1,3,4-thiadiazol-2-yl)propanamide], the IC50 (Homo sapiens, BT-20, 2 h) was 942 nM.

O=C(Cc1ccccn1)Nc1nnc(C[C@H]2C[C@@H](c3nnc(NC(=O)Cc4ccccn4)s3)C2)s1 (single isomer, unassigned) [Example 22, 2-(pyridin-2-yl)-N-{5-[(cis-3-{5-[(pyridin-2-ylacetyl)amino]-1,3,4-thiadiazol-2-yl}cyclobutyl)methyl]-1,3,4-thiadiazol-2-yl}acetamide] was tested, and the IC50 (Homo sapiens, BT-20, 2 h) was 1.4 nM.

CC(=O)Nc1ccc(C[C@H]2CC[C@@H](c3nnc(NC(=O)Cc4ccccn4)s3)C2)nn1 (single isomer, unassigned) [Example 68, N-{5-[(cis)-3-{[6-(acetylamino)pyridazin-3-yl]methyl}cyclopentyl]-1,3,4-thiadiazol-2-yl}-2-(pyridin-2-yl)acetamide] showed an IC50 (Homo sapiens, BT-20, 2 h) of 7.1 nM.

In the case of Cn1cnc(C(=O)Nc2nnc(C[C@H]3CC[C@@H](c4nnc(NC(=O)Cc5ccccn5)s4)C3)s2)c1 (racemic) [Example 150, (rac)-1-methyl-N-(5-{[(cis)-3-{5-[(pyridin-2-ylacetyl)amino]-1,3,4-thiadiazol-2-yl}cyclopentyl]methyl}-1,3,4-thiadiazol-2-yl)-1H-imidazole-4-carboxamide], the IC50 (Homo sapiens, BT-20, 2 h) is reported as 1.5 nM.

O=C(Cc1ccccn1)Nc1ccc(C[C@@H]2CC[C@H](c3nnc(NC(=O)c4ccccn4)s3)C2)nn1 (single isomer, unassigned) [Example 117, N-{5-[(cis)-3-({6-[(pyridin-2-ylacetyl)amino]pyridazin-3-yl}methyl)cyclopentyl]-1,3,4-thiadiazol-2-yl}pyridine-2-carboxamide] gave an IC50 (Homo sapiens, BT-20, 2 h) of 1.4 nM.

For CC(=O)Nc1nnc([C@H]2CC[C@@H](Cc3nnc(NC(=O)Cc4cncnc4)s3)C2)s1 (single isomer, unassigned) [Example 51, N-[5-({(cis)-3-[5-(acetylamino)-1,3,4-thiadiazol-2-yl]cyclopentyl}methyl)-1,3,4-thiadiazol-2-yl]-2-(pyrimidin-5-yl)acetamide], the IC50 (Homo sapiens, BT-20, 2 h) was 64.5 nM.

With Cn1ccc(CC(=O)Nc2nnc([C@H]3CC4(C[C@H](c5nnc(NC(=O)Cc6ccn(C)n6)s5)C4)C3)s2)n1 (some centres unmarked) [Example 98, N,N′-(spiro[3.3]heptane-2,6-diyldi-1,3,4-thiadiazole-5,2-diyl)bis[2-(1-methyl-1H-pyrazol-3-yl)acetamide]] the IC50 was 0.5 nM.

With O=C(Cc1ccccn1)Nc1nnc(C[C@@H]2CC[C@@H](c3nnc(Nc4ccccn4)s3)C2)s1 (single isomer, unassigned) [Example 85, 2-(pyridin-2-yl)-N-[5-({3-[5-(trans)(pyridin-2-ylamino)-1,3,4-thiadiazol-2-yl]cyclopentyl}methyl)-1,3,4-thiadiazol-2-yl]acetamide] the IC50 (Homo sapiens, BT-20, 2 h) was 8.2 nM.

For CC(=O)Nc1nnc([C@@H]2CC[C@H](Cc3nnc(NC(=O)Cc4ccc(C)nc4)s3)C2)s1 (single isomer, unassigned) [Example 54, N-[5-({(cis)-3-[5-(acetylamino)-1,3,4-thiadiazol-2-yl]cyclopentyl}methyl)-1,3,4-thiadiazol-2-yl]-2-(6-methylpyridin-3-yl)acetamide], the IC50 (Homo sapiens, BT-20, 2 h) was 1280 nM.

Compound CCNc1nnc([C@H]2C[C@H](Cc3ccc(NC(=O)Cc4ccccn4)nn3)C2)s1 (single isomer, unassigned) [Example 113, N-[6-({trans-3-[5-(ethylamino)-1,3,4-thiadiazol-2-yl]cyclobutyl}methyl)pyridazin-3-yl]-2-(pyridin-2-yl)acetamide] has an IC50 (Homo sapiens, BT-20, 2 h) of 5.6 nM.
